Laboratory results published in article PMC8895377, “In Vivo Targeting Replication Protein A for Cancer Therapy” (Frontiers in Oncology, 2022).
Read-outs that look alike come from different tables or passages of the source.

What was measured:
60 cancer cell lines = experiment: Cell viability in 60 cancer cell lines (CellTiter-Glo); assay type: cell-based; settings: 72 h, most values, read-out: cellular IC50
Procedure: In this study, 90-µl cell suspensions were seeded in 96-well plates in respective culture medium with a final cell density of 4 × 10^3 cells/well and incubated overnight. Here, 10× solution of 329 (top working concentration: 40 µM of test article in media with 3.16-fold serial dilutions to achieve 9 dose levels) was prepared, and 10 µl of drug solution or culture medium containing 0.5% DMSO (vehicle control) was added to the plate (triplicate for each drug concentration). Plates were incubated for 72 h at 37°C with 5% CO2 and then measured by CellTiter-Glo assay (Promega). Briefly, plates were equilibrated at room temperature for 30 min, and 50 µl of CellTiter-Glo reagent was added to each well. Contents were mixed for 5 min on an orbital shaker to induce cell lysis, and plates were further incubated at room temperature for 20 min to stabilize the luminescent signal. Luminescence was recorded using EnVision Multi Plate Reader. Percent cell growth was calculated relative to DMSO-treated cells (vehicle control), and the data were fit using non-linear regression analysis (GraphPad PRISM) to calculate cellular IC50.
Figure 4 Cellular activity of 329 in 60 cancer cell lines. Cell lines were treated with a 4-log range of replication protein A inhibitor (RPAi) 329 for 72 h. Cell viability was assessed using CellTiter-Glo luminescent viability assay. […]

[1] = Intrinsic clearance and half-life in mouse microsomes; assay type: in vitro ADME
From the text: Toward the goal to identify efficacious and safe RPAi 329 treatment regimens, we conducted single-agent screening in two lung cancer cell line-derived xenograft models. […] Having optimized cellular uptake and solubility via the addition of the propyl morpholino in 329 and 2004, we sought to determine how these modifications impact in vivo anticancer activity using two NSCLC models, A549 adenocarcinoma and H460 large cell carcinoma. […] Analyses of intrinsic clearance and half-life were conducted in mouse and rat microsomes ( Table 1 ). […] These values are less than the rate of 48, which is considered rapid clearance. In rat microsomes, rates of ~64 were obtained for 329 and are less than the rapid rate of 71.

[2] = Chemical stability in lead formulation; assay type: physicochemical; settings: for t90: 10 mg/ml in lead formulation; for predicted time stable: lead formulation; for fourteen-day stability: final formulation
Procedure: With favorable potency, cellular activity, plasma stability, and a clear deficit in PK, we initiated a series of studies to assess and optimize a formulation of 329 for in vivo bioavailability. Here, 329 solubility was assessed in a series of additives, excipients, and co-solvents to identify initial favorable vehicles ( Table 2 ). […] A series of different formulations were assessed. The final formulation consisted of polysorbate 80, N-methyl-2-pyrrolidone (NMP), propylene glycol, and PEG 400 (+1.1 mol. eq. HCl added as 12 M HCl), and 329 was soluble up to 20 mg/ml, and 10-fold dilution in PBS was well dispersed with minimal precipitation.
Figure 7 The 329 in vivo analysis. (A) Stability analysis. Compound stability was assessed over a 14-day time period at varying temperatures as indicated. (B) Pharmacokinetic analysis. Time course of drug plasma concentration over 24 h following drug administration as indicated in legend.

[3] = system: A549 adenocarcinoma xenografts; experiment: A549 xenograft efficacy; assay type: in vivo, mice
From the text: To assess anticancer efficacy, the hind flanks of 60 8–10-week-old Nod SCID gamma (NSG) mice were implanted with the indicated cells (~2 × 10^6) in Matrigel. Tumor volumes were monitored by electronic caliper measurement [tumor volumes = length × (perpendicular width)^2 × 0.5]. NSG studies were approved by the Institutional Animal Care and Use Committee at Indiana University School of Medicine. Male NSG (NOD‐scid/IL2Rg^null) mice (In Vivo Therapeutics Core Facility, IU Simon Comprehensive Cancer Center, Indianapolis, IN, USA) were used and housed in a pathogen‐free facility at IUSM LARC. Mice with tumors of approximately 100 mm^3 were randomized into individual treatment arms. The indicated RPAi was formulated and administered via intraperitoneal injection (IP) at the indicated times. Tumor volumes were monitored biweekly as indicated, and the results are presented as the average tumor volume ± standard error of the mean for each group. […]
Figure 8 In vivo analysis of anticancer activity of 329. (A) Anticancer activity was assessed in human H460 NCSLC tumor xenografts in NOD/SCID mice. Mice were implanted subcutaneously on day 1 with H460 NSCLC cells, tumors were measured by calipers, and mice assigned randomly to treatment arms. […] (C) Tumor weight from A549 cells was determined on day 32. […]

[4] = system: A549 adenocarcinoma and H460 large cell carcinoma; set-up: method as in doi:10.1101/2020.11.30.404640; settings: both models, differing dosing regimens, DMSO/Tween; cited from earlier work

Compound: CCOc1ccc2cc(C3CC(c4ccc(I)cc4)=NN3C(=O)CCCC(=O)NCCCN3CCOCC3)c(Cl)nc2c1 (stereo not drawn) [compound 329]
- IC50 (60 cancer cell lines): 5 to 10 µM
- microsomal CLint ([1]; Mouse microsomes): 31.7 µL/min/mg
- half-life ([1]; Mouse microsomes, read-out: t1/2): 43.9 min
- half-life ([1]; mouse, rat, microsomes, in mice and rats, read-out: half-lives): 20 to 40 min
- t90 ([2]; 5°C (extrapolated)): 2100 days
- predicted time stable ([2]; 5°C, extrapolated): over 5 years
- t90 ([2]; 25°C): 140 days
- t90 ([2]; 40°C): 26 days
- t90 ([2]; 60°C): 3.2 days
- fourteen-day stability ([2]; extended incubations at 60°C): degradation was observed
- predicted time stable ([2]; room temperature): over 3 months
- fourteen-day stability ([2]; up to 40°C): very stable
- tumor growth ([3]; 40 mg/kg IP once daily from day 11, optimized formulation): significant reduction in tumor growth
- terminal tumor weight ([3]; 40 mg/kg IP, day 32): significant smaller tumors
- single-agent anticancer activity in vivo [4]: only modest single-agent anticancer activity
